2 molecules from patent US6869960B2, “N-substituted spiropiperidine compounds as ligands for ORL-1 receptor” (Pfizer Inc., priority 2002, dated 2005) can be followed below.

As usually defined, the pIC50 is the IC50 on a negative log10 scale, so that one unit is a factor of ten. Lower therefore signals a large IC50.

The target of the test is T1, human ORL1 receptor (Homo sapiens, UniProt P41146).
T1 construct: expressed in transfected cells; host or cells: HEK-293 cell membranes
The test is described as follows: ORL1 receptor functional assay ([35S]GTPγS binding, nociceptin stimulated). In kind it is biochemical. The note with it: at 10 nM nociceptin stimulation; human ORL1 receptor transfected HEK-293 cell membranes. The protocol:
IC50(ORL1-receptors)nM/IC50(mu-receptors)nM<1.0 ORL1 Receptor Functional Assay • The human ORL1 receptor transfected HEK-293 cell membranes are incubated with 400 pM [^35S]GTPγS, 10 or 50 nM nociceptin and various concentrations of test compounds in assay buffer (20 mM HEPES, 100 mM NaCl, 5 mM MgCl2, 1 mM EDTA, […], 1 mM DTT, pH7.4) containing 1.5 mg of wheat germ agglutinin-coated SPA beads for 60 or 90 min at 25° C. in a final volume of 200 μl. Basal binding is assessed in the absence of nociceptin and non-specific binding is defined by the addition of unlabelled […]. Membrane-bound radioactivity is detected by a Liquid Scintillation Counter. […] Analgesic Tests Tail Flick Test in Mice • The latency time to withdrawal f the tail from radiant heat stimulation is recorded before and after administration of test compounds. Cut-off time is set to 8 sec. Acetic Acid Writhing Test in Mice • Acetic acid saline solution of 0.7% (v/v) is injected intraperitoneally (0.16 ml/10 g body weight) to mice. Test compounds are administered before acetic acid injection. As soon as acetic acid injection, animals are placed in a 1 liter beaker and writhing is recorded for 15 min. Formalin Licking Test in Mice • Formalin-induced hind paw licking is initiated by a 20 micro liters subcutaneous injection of a 2% formaline solution into a hind paw of mice. […]
(Binding of GTPγS marks nucleotide exchange on a G protein.)

pIC50: −log10 of the molar value.

T1 sequence (P41146 whole entry): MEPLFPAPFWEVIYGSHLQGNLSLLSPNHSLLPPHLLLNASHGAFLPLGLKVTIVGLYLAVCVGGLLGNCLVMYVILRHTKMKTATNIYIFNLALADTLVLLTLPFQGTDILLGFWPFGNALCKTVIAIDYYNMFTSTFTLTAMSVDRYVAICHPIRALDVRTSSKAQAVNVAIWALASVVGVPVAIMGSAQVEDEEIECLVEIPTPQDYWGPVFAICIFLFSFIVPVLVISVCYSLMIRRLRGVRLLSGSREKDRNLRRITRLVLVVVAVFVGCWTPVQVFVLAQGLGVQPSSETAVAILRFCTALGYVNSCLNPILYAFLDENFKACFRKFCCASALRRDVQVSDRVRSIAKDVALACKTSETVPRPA

For the molecule `CN1CC2(CCN(CC3Cc4cccc(O)c4NC3=O)CC2)c2ccccc21` (centres unmarked) [Example 31, 8-Hydroxy-3-[(1-methyl-1,2-dihydro-1′H-spiro[indole-3,4′-piperidin]-1′-yl)methyl]-3,4-dihydroquinolin-2(1H)-one], the pIC50 is 7.89. To `O=C1COc2cccc3c2N1CC(CN1CCC2(CCc4ccccc42)CC1)C3` (centres unmarked) [Example 20, 6-(2,3-Dihydro-1′H-spiro[indene-1,4′piperidin]-1′-ylmethyl)-6,7-dihydro-5H-[1,4]oxazino[2,3,4-ij]quinolin-3(2H)-one] belongs 7.89.
